Data taken from patent publication US20170362228A1, “TETRAHYDRO-PYRIDO[3,4-b]INDOLE ESTROGEN RECEPTOR MODULATORS AND USES THEREOF” (Genentech, Inc., priority 2016, published 2017).
Read-outs that look alike come from different tables or passages of the source.

Key:
[1] = target: T1, estrogen receptor alpha (ESR1) (Homo sapiens, UniProt P03372); assay: Breast Cancer Cell ERa High Content Fluorescence Imaging Degradation Assay (Example 901); assay type: cell-based; conditions: Table 1a; MCF7 breast cancer cells, 4 hours; plateau of the maximal effect; DMSO and Fulvestrant define 0% and 100% changes in ESR1
T1 construct: endogenous in cells; host or cells: MCF7 breast cancer cells
T1 sequence (P03372 1-595): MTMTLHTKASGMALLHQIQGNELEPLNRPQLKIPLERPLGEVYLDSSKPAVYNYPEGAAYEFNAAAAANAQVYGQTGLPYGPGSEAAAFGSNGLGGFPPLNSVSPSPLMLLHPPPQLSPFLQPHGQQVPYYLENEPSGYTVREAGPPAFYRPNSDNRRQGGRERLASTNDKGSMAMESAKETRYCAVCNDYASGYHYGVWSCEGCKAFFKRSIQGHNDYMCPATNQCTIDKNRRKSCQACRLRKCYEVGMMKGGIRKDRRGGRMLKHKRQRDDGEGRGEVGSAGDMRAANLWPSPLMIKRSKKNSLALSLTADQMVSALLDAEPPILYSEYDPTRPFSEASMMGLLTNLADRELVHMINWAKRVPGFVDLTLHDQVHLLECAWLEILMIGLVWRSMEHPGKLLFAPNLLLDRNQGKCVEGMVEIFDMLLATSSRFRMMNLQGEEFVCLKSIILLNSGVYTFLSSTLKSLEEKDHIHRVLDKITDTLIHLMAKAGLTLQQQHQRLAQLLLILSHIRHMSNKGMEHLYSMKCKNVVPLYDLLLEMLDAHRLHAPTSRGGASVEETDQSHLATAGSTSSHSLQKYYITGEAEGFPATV
Method: MCF7 breast cancer cells were seeded on day 1 at a density of 10,000 cells per well in 384 well poly-lysine coated tissue culture plate (Greiner # T-3101-4), in 50 μL/well RPMI (phenol red free), 10% FBS (Charcoal stripped), containing L-glutamine. On day 2, compounds were prepared at 2 compound source concentrations: 100 μM and 1 μM (ultimately to give 2 overlapping titration curves), in a Labcyte low dead volume plate, 10 μL/well, and 10 μL of DMSO in designated wells for backfill, and 5 μM Fulvestrant (control compound) in designated wells. Compounds and controls were dispensed using a Labcyte Echo acoustic dispenser to dispense compounds with a predefined serial dilution (1.8×, 10 point, in duplicate) and appropriate backfill and control compounds (final total volume transferred was 417.5 nL and compound dispense volume ranges from 2.5 nL to 417.5 nL; 0.84% DMSO (v/v) final), ultimately producing a concentration range from 0.05 nM to 835 nM. Cell plates were incubated at 37° C., for 4 hours. Fixation and permeabilization were carried out using a Biotek EL406 plate washer and dispenser as follows. Cells were fixed by addition of 15 μL of 16% paraformaldehyde (Electron Microscopy Sciences #15710-S) directly to the 50 μL cell culture medium in each well using the peristaltic pump 5 μL cassette on a Biotek EL406 (final concentration of formaldehyde was 3.7% w/v). Samples were incubated 30 minutes. Well contents was aspirated and 50 μL/well of Phosphate Buffered Saline (PBS) containing 0.5% w/v bovine serum albumen, 0.5% v/v Triton X-100 (Antibody Dilution Buffer) was added to each well. Samples were incubated for 30 minutes. Well contents were aspirated and washed 3 times with 100 μL/well of PBS. Immunofluorescence staining of estrogen receptor alpha (ESR1) was carried out using a Biotek EL406 plate washer and dispenser as follows. The well supernatant was aspirated from the wells and 25 μL/well of anti-ESR1 mAb (F10) (Santa Cruz sc-8002) diluted 1:1000 in Antibody Dilution Buffer was dispensed. Samples were incubated for 2 hours at room temperature. Samples were washed 4 times with 100 μL/well of PBS. 25 uL/well of secondary antibody solution (Alexafluor 488 conjugate anti-mouse IgG (LifeTechnologies #A21202) diluted 1:1000 and Hoechst 33342 1 μg/ml diluted in Antibody Dilution Buffer) were dispensed into each well. Samples were incubated for 2 hours at room temperature. Samples were washed 3 times with 100 μL/well of PBS using a Biotek EL406. Quantitative fluorescence imaging of ESR1 was carried out using a Cellomics Arrayscan V (Thermo). Fluorescence images of the samples (Channel 1: XF53 Hoechst (DNA stain); Channel 2: XF53 FITC (ESR1 stain)) were acquired using a Cellomics VTI Arrayscan using the Bioapplication “Compartmental Analysis” using the auto-exposure (based on DMSO control wells) setting “peak target percentile” set to 25% target saturation for both channels. Channel 1 (DNA stain) was used to define the nuclear region (Circ). Measurements of “Mean_CircAvgIntCh2”, which is the Alexafluor 488 fluorescence intensity (ESR1) within the nuclear region, was measured on a per cell basis and averaged over all the measured cells. Data analysis was carried out using Genedata Screener Software, with DMSO and 5 nM Fulvestrant treated samples being used to define the 0% and 100% changes in ESR1. The “Robust Fit” method was used to define the inflexion point of curve (EC50) and the plateau of the maximal effect (Sinf). Degradation data for exemplary Formula I compounds is reported as ER-alpha MCF7 HCS Sinf(%) values in Table 1.

[2] = system: MCF7 cells; assay: In vitro cell proliferation assays (Examples 902 and 903), MCF7; assay type: cell-based; conditions: read-out: ER-alpha MCF7 HCS (EC50)
Method: Efficacy of estrogen receptor modulator compounds and chemotherapeutic compounds are measured by a cell proliferation assay employing the following protocol (Mendoza et al (2002) Cancer Res. 62:5485-5488).
The CellTiter-Glo® Luminescent Cell Viability Assay is a homogeneous method to determine the number of viable cells in culture based on quantitation of the ATP present, which signals the presence of metabolically active cells. The CellTiter-Glo® Assay is designed for use with multiwell plate formats, making it ideal for automated high-throughput screening (HTS), cell proliferation and cytotoxicity assays. The homogeneous assay procedure involves adding a single reagent (CellTiter-Glo® Reagent) directly to cells cultured in serum-supplemented medium. Cell washing, removal of medium or multiple pipetting steps are not required. The Cell Titer-Glo® Luminescent Cell Viability Assay, including reagents and protocol are commercially available (Promega Corp., Madison, Wis., Technical Bulletin TB288).
The assay assesses the ability of compounds to enter cells and inhibit cell proliferation. The assay principle is based on the determination of the number of viable cells present by quantitating the ATP present in a homogenous assay where addition of the Cell TiterGlo® reagent results in cell lysis and generation of a luminescent signal through the luciferase reaction. The luminescent signal is proportional to the amount of ATP present.
Procedure: Day 1—Seed Cell Plates (384-well black, clear bottom, microclear, TC plates with lid from Falcon #353962), Harvest cells, Seed cells at 1000 cells per 54 μl per well into 384 well Cell Plates for 3 days assay. Cell Culture Medium: RPMI or DMEM high glucose, 10% Fetal Bovine Serum, 2 mM L-Glutamine, P/S. Incubate 0/N (overnight) at 37° C., 5% CO2.
Day 2—Add Drug to Cells, Compound Dilution, DMSO Plates (serial 1:2 for 9 points). Add 20 μl of compound at 10 mM in the 2nd column of 96 well plate. Perform serial 1:2 across the plate (10 μl+20 μl 100% DMSO) for a total of 9 points using Precision Media Plates 96-well conical bottom polypropylene plates from Nunc (cat.#249946) (1:50 dilution). Add 147 μl of Media into all wells. Transfer 3 μl of DMSO+compound from each well in the DMSO Plate to each corresponding well on Media Plate using Rapidplate® (Caliper, a Perkin-Elmer Co.). For 2 drug combination studies, transfer one drug 1.5 μl of DMSO+compound from each well in the DMSO Plate to each corresponding well on Media Plate using Rapidplate. Then, transfer another drug 1.5 μl to the medium plate.
Drug Addition to Cells, Cell Plate (1:10 dilution): Add 6 μl of media+compound directly to cells (54 μl of media on the cells already). Incubate 3 days at 37° C., 5% CO2 in an incubator that will not be opened often.
Day 5—Develop Plates, Thaw Cell Titer Glo Buffer at room temperature: Remove Cell Plates from 37° C. and equilibrate to room temperature for about 30 minutes. Add Cell Titer-Glo® Buffer to Cell Titer-Glo® Substrate (bottle to bottle). Add 30 μl Cell Titer-Glo® Reagent (Promega cat.# G7572) to each well of cells. Place on plate shaker for about 30 minutes. Read luminescence on Analyst HT Plate Reader (half second per well).
Cell viability assays and combination assays: Cells were seeded at 1000-2000 cells/well in 384-well plates for 16 h. On day two, nine serial 1:2 compound dilutions were made in DMSO in a 96 well plate. The compounds were further diluted into growth media using a Rapidplate® robot (Zymark Corp., Hopkinton, Mass.). The diluted compounds were then added to quadruplicate wells in 384-well cell plates and incubated at 37° C. and 5% CO2. After 4 days, relative numbers of viable cells were measured by luminescence using Cell Titer-Glo® (Promega) according to the manufacturer's instructions and read on a Wallac Multilabel Reader® (PerkinElmer, Foster City). EC50 values were calculated using Prism® 4.0 software (GraphPad, San Diego). […]

Row | SMILES | ER-alpha MCF7 HCS (S inf) [1] | EC50 ([2]; Homo sapiens, MCF7, Table 1a) | EC50 ([2]; Table 1a)
1 | C[C@@H]1Cc2c([nH]c3ccccc23)[C@@H](c2c(F)cc(C(O)C3CN(CCCF)C3)cc2F)N1C[C@@](C)(F)CO (stereo partly drawn) [Compound 107, (2R)-3-((1R,3R)-1-(2,6-difluoro-4-((1-(3-fluoropropyl)azetidin-3-yl)(hydroxy)methyl)phenyl)-3-methyl-1,3,4,9-tetrahydro-2H-pyrido[3,4-b]indol-2-yl)-2-fluoro-2-methylpropan-1-ol] | −94.23% | 0.107 nM | –
2 | C[C@@H]1Cc2c([nH]c3ccccc23)[C@@H](c2c(F)cc(C(O)C3CN(CCCF)C3)cc2F)N1CC(F)(F)F (stereo partly drawn) [Compound 109, (3,5-difluoro-4-((1R,3R)-3-methyl-2-(2,2,2-trifluoroethyl)-2,3,4,9-tetrahydro-1H-pyrido[3,4-b]indol-1-yl)phenyl)(1-(3-fluoropropyl)azetidin-3-yl)methanol] | −98.1% | 0.23 nM | –
3 | C[C@@H]1Cc2c([nH]c3ccccc23)[C@@H](c2c(F)cc(C(O)C3CN(CCCF)C3)cc2F)N1CC(F)F (stereo partly drawn) [Compound 110] | −98.4% | 0.082 nM | –
4 | C[C@@H]1Cc2c([nH]c3ccc(F)cc23)[C@@H](c2c(F)cc(C(O)C3CN(CCCF)C3)cc2F)N1CC(C)(F)CO (stereo partly drawn) [Compound 113, 3-((1R,3R)-1-(2,6-difluoro-4-((1-(3-fluoropropyl)azetidin-3-yl)(hydroxy)methyl)phenyl)-6-fluoro-3-methyl-1,3,4,9-tetrahydro-2H-pyrido[3,4-b]indol-2-yl)-2-fluoro-2-methylpropan-1-ol] | −91.41% | – | 0.884 nM
5 | C[C@@H]1Cc2c([nH]c3ccccc23)[C@@H](c2ccc(C(O)C3CN(CCCF)C3)cc2)N1CC(F)(F)CO (stereo partly drawn) [Compound 117, 2,2-difluoro-3-((1R,3R)-1-(4-((1-(3-fluoropropyl)azetidin-3-yl)(hydroxy)methyl)phenyl)-3-methyl-1,3,4,9-tetrahydro-2H-pyrido[3,4-b]indol-2-yl)propan-1-ol] | −100% | 0.066 nM | –

More lines, in order of falling EC50 ([2]; Homo sapiens, MCF7, Table 1a), values ahead:

Row | ER-alpha MCF7 HCS (S inf) [1] | EC50 ([2]; Homo sapiens, MCF7, Table 1a) | EC50 ([2]; Table 1a) | SMILES
6 | −95.97% | 0.066 nM | – | C[C@@H]1Cc2c([nH]c3ccccc23)[C@@H](c2c(F)cc([C@H](O)C3CN(CCCF)C3)cc2F)N1CC(C)(C)F [Compound 111, (R)-(3,5-difluoro-4-((1R,3R)-2-(2-fluoro-2-methylpropyl)-3-methyl-2,3,4,9-tetrahydro-1H-pyrido[3,4-b]indol-1-yl)phenyl)(1-(3-fluoropropyl)azetidin-3-yl)methanol]
7 | −96.34% | 0.056 nM | – | C[C@@H]1Cc2c([nH]c3ccccc23)[C@@H](c2c(F)cc(C(O)C3CN(CCCF)C3)cc2F)N1C[C@](C)(F)CO (stereo partly drawn) [Compound 108, (2S)-3-((1R,3R)-1-(2,6-difluoro-4-((1-(3-fluoropropyl)azetidin-3-yl)(hydroxy)methyl)phenyl)-3-methyl-1,3,4,9-tetrahydro-2H-pyrido[3,4-b]indol-2-yl)-2-fluoro-2-methylpropan-1-ol]
8 | −99.15% | 0.05 nM | – | C[C@@H]1Cc2c([nH]c3ccccc23)[C@@H](c2c(F)cc([C@@H](O)C3CN(CCCF)C3)cc2F)N1CC(C)(C)F [Compound 112, (S)-(3,5-difluoro-4-((1R,3R)-2-(2-fluoro-2-methylpropyl)-3-methyl-2,3,4,9-tetrahydro-1H-pyrido[3,4-b]indol-1-yl)phenyl)(1-(3-fluoropropyl)azetidin-3-yl)methanol]
9 | −98.7% | 0.031 nM | – | C[C@@H]1Cc2c([nH]c3ccccc23)[C@@H](c2ccc(C(O)C3CN(CCCF)C3)cc2F)N1CC(F)(F)CO (stereo partly drawn) [Compound 116, 2,2-difluoro-3-((1R,3R)-1-(2-fluoro-4-((1-(3-fluoropropyl)azetidin-3-yl)(hydroxy)methyl)phenyl)-3-methyl-1,3,4,9-tetrahydro-2H-pyrido[3,4-b]indol-2-yl)propan-1-ol]
